# Where “and” joins values, the source holds several entries; their conditions need not be identical. Equal values may be shown once.
# Assays:
# [1] = Body weight at dissection after administration of STZ; type: in vivo, mouse; conditions: STZ 75 mg/kg intraperitoneally for 3 consecutive days, 4-week-old male C57BL/6NCr Slc mice; individual animals
# Method: (§1) 0.01% citrate buffer solution (pH 4.5) of streptozotocin (STZ) was intraperitoneally administered to 4-week-old male C57BL/6NCr Slc mice in an amount of 75 mg/kg in terms of STZ for 3 consecutive days (administered solution amount: 10 mL/kg). 0.01% citrate buffer solution (pH 4.5), which is a solvent, was intraperitoneally administered to the control group for 3 consecutive days (administered solution amount: 10 mL/kg). The animals from which the organs and tissue were to be collected were fasted overnight from the day before dissection. On the day of dissection, the tail vein of each mouse was cut, and the blood glucose level was measured with a simple blood glucose meter. On the following day, the mice were euthanized by cervical dislocation without anesthesia, and the organs and tissue were collected. After the wet weights of the collected organs and tissue were measured, the organs and tissue were rapidly frozen in liquid nitrogen and stored at −80° C.
# Saa1 = test: D-iOrgans real-time PCR, STZ/Control relative expression, Saa1; type: in vivo, mouse; conditions: liver of the STZ administration mice
# Method: (§2) 1 μg of total RNA obtained from each tissue was used as a template for cDNA synthesis, and cDNA was synthesized using Oligo dT20 primer according to the standard protocol of Superscript III First-Strand Synthesis Supermix (Life Technologies). After the synthesized cDNA was diluted 20-fold with 10-fold diluted TE buffer (10 mM Tris-HCl, pH 8.0, 0.1 mM EDTA), real-time PCR was performed with a […] (Roche) according to the standard protocol of LightCycler 480 SYBR Green I Master (Roche) and Cp values were measured. The relative expression level of each gene relative to the reference gene was calculated by comparing the Cp value obtained for each gene with the Cp value for β2-microglobulin (B2m) or Maea as a reference gene, and MI/Sham was determined. However, with the primer set for Hba-a, Hba-a1 and Hba-a2 cannot be distinguished in PCR, and with the primer set for Hbb-b, Hbb-bs, and Hbb-bt cannot be distinguished in PCR. […]
# (§3) Real-time PCR was conducted according to the procedure described in 1-4 (4) of “I. iOrgans” to measure Cp values. The relative expression level of each gene relative to the reference gene was calculated by comparing the Cp value obtained for each gene with the Cp value for β2-microglobulin (B2m) or Maea as a reference gene to, and STZ/Control was determined. […]
# [2] = Blood glucose level after administration of STZ (simple blood glucose meter, tail vein); type: in vivo, mouse; conditions: STZ 75 mg/kg intraperitoneally for 3 consecutive days, 4-week-old male C57BL/6NCr Slc mice, fasted overnight; individual animals
# Method: as §1
# [3] = administered to a mouse for a week or more; cited from earlier work
# Hamp = test: D-iOrgans real-time PCR, STZ/Control relative expression, Hamp; type: in vivo, mouse
# Method: as §2, §3
smiles,measurement,setting,value
"CN(N=O)C(=O)N[C@H]1C(O)O[C@H](CO)[C@@H](O)[C@@H]1O (mixture of isomers) [STZ, streptozotocin]",Body weight at dissection,[1],12.8 g (2×) and 10.3 g
same,Expression of Saa1 in the liver (STZ/Control),Saa1,increase
same,Blood glucose,[2],65 mg/dL and 83 mg/dL and 42 mg/dL
same,Glycemic state after long administration,[3],becomes hyperglycemic
same,Expression of Hamp in the heart (STZ/Control),"Hamp; heart, STZ administration mice, day after 3 days of STZ",increase
same,Predicted side effect in the heart from Hamp expression,Hamp; inferred from known function of Hamp (iron metabolism),decrease the amount of iron in cardiac cells

# — patent publication US11244760B2, “Prediction device based on inter-organ cross talk system” (KARYDO THERAPEUTIX, INC., priority 2015, dated 2022)
